Marks after values point to notes of the source that are not given here.
Tests used:
NZB/W F1 female mice [1] = assay: Proteinuria and UP/C in SLE model mouse; assay type: in vivo; details: for incidence rate of severe proteinuria of 300 mg/dl or more: 42 weeks old
Method: (§1) 80 NZB/W F1 female mice (four weeks old) were purchased from Jackson Laboratory and maintained in an SPF breeding room with five mice per cage. Their weight and urine protein were measured at 24 weeks after birth (right before administration), and then all the animals except those having too much urine protein were divided into groups as shown in a table 2 below such that the urine protein and weight might be evenly distributed among the groups.
(§2) Then, the mice were administered as described in the table 2 once a day for about 19 weeks from 24 weeks after birth to 42 weeks after birth.
(§3) The fresh urine of mice was collected before and after administration every two weeks, while blood collection was performed before and after administration every four weeks. The serum was prepared by centrifugation of the collected blood and then kept at −70° C.
A urine creatinine concentration was obtained by diluting the urine 100-fold, then measuring the concentration thereof by means of a serum chemistry analyzer (Dri-CHEM 3000 colorimetric analyzer, Fujifilm), and then calibrating the measured value using a dilution factor.

NZB/W F1 female mice [2] = assay: T cell populations in spleen (FACS) in SLE disease mouse; assay type: in vivo
Method: as §1, §2
To evaluate a pattern of immune T cell populations in spleen in the SLE disease mouse, a ratio of CD3, CD4, CD8a and CTLA4 expressions as well as a Treg proportion/Th1, Th2, Th17 and Treg master regulator (T-bet, GATA-3, ROR-γt, Foxp3) expression patterns were measured.
To that end, splenocytes were first obtained from the spleen obtained during the mouse autopsy by means of a 70 μm cell strainer (BD), and then red blood cells were hemolyzed by means of an EL buffer and washed with FACS buffer solution (5% BSA/PBS). After that, staining was performed at a concentration recommended by a manufacturer by means of PerCP-cy5.5-conjugated anti-mouse CD3 (ebioscience, Sandiego, Calif., USA), PE-Cyanine7-conjugated anti-mouse CD8a (ebioscience), FITC-conjugated anti-CD4 (BD), APC-conjugated anti-mouse CD25 (BD), PE-conjugated anti-mouse FoxP3 (BD), PE-conjugated anti-mouse RORγt (ebioscience), PE-conjugated anti-mouse T-bet (ebioscience), PE-conjugated anti-mouse GATA-3 (ebioscience), and PE-conjugated anti-mouse CTLA4 (ebioscience) antibodies.
The splenocytes and cell surface marker antibodies were immediately reacted. Before reacting FoxP3, RORγt, T-bet and GATA3 antibodies, the splenocytes were fixed by means of a FoxP3/Transcription Factor staining buffer set, then permeabilized, and then reacted with the antibodies. A ratio of CD4:CD8 in CD3 cells as well as a ratio of CD4+CD8-cells, CD4−CD8+ cells, CD4+CD8+ cells and double negative T cells were respectively measured and compared between the groups. To identify a ratio of FoxP3, RORγt, T-bet and GATA3, which were master regulators of Treg, Th17, Th1 and Th2, a ratio of CD4+CD25+FoxP3+ cells, CD4+CD25+RORγt+ cells, CD4+CD25+ T-bet+ cells and CD4+CD25+GATA3+ cells was respectively measured.

NZB/W F1 female mice [3] = assay: BUN and serum creatinine in SLE model mouse; assay type: in vivo
Method: as §1, §2, §3
To evaluate a kidney function of the SLE model mouse, BUN and creatine concentrations were measured from a mouse serum collected every month (at 24, 28, 32, 36 and 40 weeks old and during autopsy) by means of a Dri-CHEM 3000 colorimetric analyzer (Fuji film).

NZB/W F1 female mice [4] = assay: Ratio of PreB and ProB cells in marrow (FACS); assay type: in vivo, mouse; details: experimental groups vs control group
Method: as §1, §2
A ratio of pro B (B220+, CD43+) and pre B (B220+, CD43−) cells in mouse marrow cells was measured by means of FACS. To that end, the marrow cells were obtained by flushing a femur with PBS comprising 5% BSA. After that, red blood cells were hemolyzed by means of EL buffer, then washed with FACS buffer (5% BSA/PBS), and then stained with FITC-conjugated anti-mouse CD43 antibodies (ebioscience) and PE-conjugated anti-mouse […] antibodies (ebioscience), such that a ratio of Pre B (B220+CD43-) and Pro B (B220+CD43+) cells was measured.

NZB/W F1 female mice [5] = assay: Renal histopathological evaluation in SLE model mouse; assay type: in vivo
Method: as §1, §2
To identify an effect of the inventive pharmaceutical composition on kidney in the SLE disease model, a histopathological evaluation was performed.
First of all, a half of a left kidney of a mouse collected during the autopsy was fixed with 10% neutral buffered formalin and prepared as a paraffin block. Then, a histopathological evaluation was performed by means of hematoxylin and eosin staining (H&E, BBC Biochemical, Mount Vernon, Wash., USA), periodic acid-schiff staining (PAS, BBC Biochemical) and Masson's trichrome staining (BBC Biochemical).

NZB/W F1 female mice [6] = assay: Serum chemistry after long-term administration; assay type: in vivo, mouse; details: serum at autopsy
Method: as §1, §2
Data obtained from groups were compared using a Kruskal-Wallis (†p<0.05), *p<0.05 versus C group (Mann-Whitney U-test), ALT: alanine aminotransferase, AST: aspartate aminotransferase, ALP: alkaline phosphatase, TBIL: total bilirubin, TCHOL: total cholesterol, TG: triglyceride, TP: total protein, CPK: creatine phosphokinase)

[7] = 50 mg/kg dosed group vs control group
[8] = spleen, CD3+ gated, experimental groups
[9] = experimental groups vs control groups
[10] = experimental groups, 40 weeks old

Question: Which results are given for O=C(NO)c1ccc(CN(C(=O)N2CCOCC2)c2cccc(C(F)(F)F)c2)cc1 [Compound 374, N-(4-(hydroxycarbamoyl)benzyl)-N-(3-(trifluoromethyl)phenyl)morpholine-4-carboxamide]?
Answer: incidence rate of severe proteinuria of 300 mg/dl or more (NZB/W F1 female mice [1]; 10 mg/kg dosed group): 60%; incidence rate of severe proteinuria of 300 mg/dl or more (NZB/W F1 female mice [1]; 30 mg/kg dosed group): 6.7%; incidence rate of severe proteinuria of 300 mg/dl or more (NZB/W F1 female mice [1]; 50 mg/kg dosed group): 0%; UP/C (ratio of urine protein:creatine) (NZB/W F1 female mice [1]; 36-week old, all the experimental groups): remarkably decreased; UP/C value (NZB/W F1 female mice [1]; 42-week old, all experimental groups except the 10 mg/kg dosed group, vs negative control): decreased more; incidence rate of severe proteinuria (NZB/W F1 female mice [1]; experimental groups, 24 to 42 week after birth): remarkably improved; ratio of CD4+T-bet+/CD4+GATA-3+ (NZB/W F1 female mice [2]; 30 mg/kg and 50 mg/kg dosed groups vs control group): more significantly decreased; T-bet expression in CD4+ cells (NZB/W F1 female mice [2]; [7]): significantly lower; ratio of CD4+CD25+ cells/CD4+ cells (NZB/W F1 female mice [2]; [7]): significantly lower; ratio of CD25+ cells (NZB/W F1 female mice [2]; [7]): significantly lower; ratio of CD4−CD8+ T cells (NZB/W F1 female mice [2]; [8]): increased; ratio of CD4−CD8− T cells (NZB/W F1 female mice [2]; [8]): decreased; ratio of CD4+CD25+Foxp3+, CD4+CD25+RORγt+, CD4+CD25+ T-bet+ and CD4+CD25+GATA-3+ cells (NZB/W F1 female mice [2]; spleen, between the groups): a significance between the groups was not observed yet; ratio of CD4+CD8−: CD4−CD8+ T cells (NZB/W F1 female mice [2]; spleen, experimental groups): tended to decrease as an administered dose was increased; BUN concentration (NZB/W F1 female mice [3]; [9]): decreased; serum creatine concentration (NZB/W F1 female mice [3]; [9]): decreased; BUN concentration (NZB/W F1 female mice [3]; [10]): remarkably excellent effect of reducing; serum creatine concentration (NZB/W F1 female mice [3]; [10]): remarkably excellent effect of reducing; ratio of pre B and pro B cells in marrow (NZB/W F1 female mice [4]): significant change in the ratio of pre B and pro B cells was not observed; infiltration of inflammatory cells in kidney (marks 0-4) (NZB/W F1 female mice [5]; 30 and 50 mg/kg dosed groups): remarkably excellent effect of reducing the infiltration of inflammatory cells; degree of infiltration of inflammatory cells in kidney (marks 0-4) (NZB/W F1 female mice [5]; experimental groups): decreased; ALP (NZB/W F1 female mice [6]; group D, 10 mg/kg/day i.p.): 187.44 ± 20.75 U/I; ALT (NZB/W F1 female mice [6]; group D, 10 mg/kg/day i.p.): 18.10 ± 1.72 U/I; AST (NZB/W F1 female mice [6]; group D, 10 mg/kg/day i.p.): 44.20 ± 3.19 U/I; Albumin (NZB/W F1 female mice [6]; group D, 10 mg/kg/day i.p.): 1.91 ± 0.14 g/dL; CPK (NZB/W F1 female mice [6]; group D, 10 mg/kg/day i.p.): 86.70 ± 17.99 U/I; Ca (NZB/W F1 female mice [6]; group D, 10 mg/kg/day i.p.): 10.08 ± 0.40 mg/dL; Glucose (NZB/W F1 female mice [6]; group D, 10 mg/kg/day i.p.): 162.56 ± 9.36 mg/dL; TBIL (NZB/W F1 female mice [6]; group D, 10 mg/kg/day i.p.): 0.22 ± 0.03 mg/dL; TCHOL (NZB/W F1 female mice [6]; group D, 10 mg/kg/day i.p.): 193.60 ± 34.55 mg/dL; TG (NZB/W F1 female mice [6]; group D, 10 mg/kg/day i.p.): 241.00 ± 35.25 mg/dL; TP (NZB/W F1 female mice [6]; group D, 10 mg/kg/day i.p.): 4.74 ± 0.20 g/dL; ALP (NZB/W F1 female mice [6]; group E, 30 mg/kg/day i.p.): 155.92 ± 5.53* U/I; ALT (NZB/W F1 female mice [6]; group E, 30 mg/kg/day i.p.): 20.79 ± 0.78* U/I; AST (NZB/W F1 female mice [6]; group E, 30 mg/kg/day i.p.): 55.21 ± 5.17* U/I; Albumin (NZB/W F1 female mice [6]; group E, 30 mg/kg/day i.p.): 2.19 ± 0.11 g/dL; CPK (NZB/W F1 female mice [6]; group E, 30 mg/kg/day i.p.): 84.71 ± 8.39 U/I; Ca (NZB/W F1 female mice [6]; group E, 30 mg/kg/day i.p.): 9.65 ± 0.19 mg/dL; Glucose (NZB/W F1 female mice [6]; group E, 30 mg/kg/day i.p.): 191.29 ± 7.33* mg/dl; TBIL (NZB/W F1 female mice [6]; group E, 30 mg/kg/day i.p.): 0.26 ± 0.03 mg/dL; TCHOL (NZB/W F1 female mice [6]; group E, 30 mg/kg/day i.p.): 140.07 ± 14.48 mg/dL; TG (NZB/W F1 female mice [6]; group E, 30 mg/kg/day i.p.): 240.86 ± 56.19* mg/dl; TP (NZB/W F1 female mice [6]; group E, 30 mg/kg/day i.p.): 5.21 ± 0.19 g/dL; ALP (NZB/W F1 female mice [6]; group F, 50 mg/kg/day i.p.): 153.08 ± 4.78 U/I; ALT (NZB/W F1 female mice [6]; group F, 50 mg/kg/day i.p.): 29.07 ± 3.26* U/I; AST (NZB/W F1 female mice [6]; group F, 50 mg/kg/day i.p.): 59.00 ± 15.00 U/I; Albumin (NZB/W F1 female mice [6]; group F, 50 mg/kg/day i.p.): 2.26 ± 0.09* g/dl; CPK (NZB/W F1 female mice [6]; group F, 50 mg/kg/day i.p.): 125.86 ± 47.35 U/I; Ca (NZB/W F1 female mice [6]; group F, 50 mg/kg/day i.p.): 9.43 ± 0.16 mg/dL; Glucose (NZB/W F1 female mice [6]; group F, 50 mg/kg/day i.p.): 200.23 ± 3.91* mg/dl; TBIL (NZB/W F1 female mice [6]; group F, 50 mg/kg/day i.p.): 0.28 ± 0.04 mg/dL; TCHOL (NZB/W F1 female mice [6]; group F, 50 mg/kg/day i.p.): 129.57 ± 8.98 mg/dL; TG (NZB/W F1 female mice [6]; group F, 50 mg/kg/day i.p.): 183.29 ± 15.00 mg/dL; TP (NZB/W F1 female mice [6]; group F, 50 mg/kg/day i.p.): 5.35 ± 0.16* g/dl
